Assay results published in patent publication US20100267561A1, “HERBICIDAL PYRIDAZINONE DERIVATIVES” (priority 2007, published 2010).

What was measured:
Assay type in all cases: in vivo
[1] = system: Italian ryegrass (Lolium multiflorum); experiment: Test B pre-/postemergence plant response; conditions: for Ryegrass, Italian plant response rating: 8 g ai/ha
Summary of the method: (§1)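 Visual scoring from 0 (no effect) to 100 (complete control) against untreated controls was done 13 to 15 days after greenhouse treatment. Chemicals were formulated in a surfactant-containing non-phytotoxic solvent and applied to soil preemergence or to 1- to 4-leaf (2-18 cm) plants postemergence.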

[2] = system: blackgrass (Alopecurus myosuroides); experiment: Test B pre-/postemergence plant response; conditions: for Blackgrass plant response rating: 8 g ai/ha
Summary of the method: as §1

[3] = system: catchweed bedstraw (Galium aparine); experiment: Test B pre-/postemergence plant response; conditions: Preemergence
Summary of the method: as §1

[4] = system: common (oilseed) sunflower (Helianthus annuus); experiment: Test B pre-/postemergence plant response; conditions: Preemergence
Summary of the method: as §1

[5] = system: common ragweed (Ambrosia elation); experiment: Test B pre-/postemergence plant response; conditions: for Ragweed plant response rating: 8 g ai/ha
Summary of the method: as §1

[6] = system: downy bromegrass (Bromus tectorum); experiment: Test B pre-/postemergence plant response; conditions: for Bromegrass, Downy plant response rating: 8 g ai/ha
Summary of the method: as §1

[7] = system: eastern black (E.B.) nightshade (Solanum ptycanthum); experiment: Test B pre-/postemergence plant response; conditions: Preemergence
Summary of the method: as §1

[8] = system: johnsongrass (Sorghum halepense); experiment: Test B pre-/postemergence plant response; conditions: for Johnsongrass plant response rating: 8 g ai/ha
Summary of the method: as §1

[9] = system: large crabgrass (Digitaria sanguinalis); experiment: Test B pre-/postemergence plant response; conditions: for Crabgrass, Large plant response rating: 8 g ai/ha
Summary of the method: as §1

[10] = system: morningglory (Ipomoea coccinea); experiment: Test B pre-/postemergence plant response; conditions: for Morningglory plant response rating: 8 g ai/ha
Summary of the method: as §1

[11] = system: pigweed (Amaranthus retroflexus); experiment: Test B pre-/postemergence plant response; conditions: for Pigweed plant response rating: 8 g ai/ha
Summary of the method: as §1

wild oat (Avena fatua) = experiment: Test B pre-/postemergence plant response; conditions: for Oat, Wild plant response rating: 8 g ai/ha
Summary of the method: as §1

[12] = system: barnyardgrass (Echinochloa crus-galli); experiment: Test B flooded paddy test plant response
Summary of the method: (§2)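 Rice, umbrella sedge, ducksalad and barnyardgrass at 2-leaf stage; pots flooded to 3 cm, compounds applied into paddy water, depth held throughout. Greenhouse 13 to 15 days, then visual rating vs untreated controls on 0–100 scale (0 no effect, 100 complete control); dash means no test result.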

rice (Oryza sativa) = experiment: Test B flooded paddy test plant response
Summary of the method: as §2

[13] = Postemergence, 16 g ai/ha, scale 0 to 100
[14] = Postemergence, 31 g ai/ha, scale 0 to 100, 0 no effect, 100 complete control
[15] = Postemergence, 62 g ai/ha, scale 0 to 100, 0 no effect, 100 complete control
[16] = Preemergence, 16 g ai/ha, scale 0 to 100 (0 no effect, 100 complete control)
[17] = Preemergence, 31 g ai/ha, 0 to 100 scale, 0 no effect, 100 complete control
[18] = Preemergence, 62 g ai/ha, scale 0 to 100
[19] = 16 g ai/ha, scale 0 to 100 (0 no effect, 100 complete control)
[20] = 31 g ai/ha, 0 to 100 scale, 0 no effect, 100 complete control
[21] = Flood (flooded paddy test), 62 g ai/ha, scale 0 to 100, 0 no effect, 100 complete control
[22] = Flood (flooded paddy test), 125 g ai/ha, scale 0 to 100, 0 no effect, 100 complete control
[23] = Flood (flooded paddy test), 250 g ai/ha, scale 0 to 100, 0 no effect, 100 complete control
[24] = Flood, 31 g ai/ha, scale 0 to 100

COC(=O)Oc1cnn(C)c(=O)c1-n1nc(-c2ccc(Cl)cc2)cc1C [Compound 33]
85: Ryegrass, Italian plant response rating ([1]; Preemergence, scale 0 to 100) | Plant response rating, Johnsongrass [8, 14] | Plant response rating, Barnyardgrass [12, 22]
0: Plant response rating, Galium [3, 19] | Plant response rating, Galium [3, 20] | Plant response rating, Galium ([3]; 62 g ai/ha, scale 0 to 100) | Galium plant response rating ([3]; 8 g ai/ha, scale 0 to 100) | Plant response rating, Sunflower [4, 19] | Plant response rating, Sunflower [4, 20] | Plant response rating, Sunflower ([4]; 62 g ai/ha, scale 0 to 100) | Sunflower plant response rating ([4]; 8 g ai/ha, scale 0 to 100) | Ragweed plant response rating ([5]; postemergence, 0-100 scale) | Plant response rating, Ragweed [5, 13] | Plant response rating, Ragweed [5, 14] | Plant response rating, Ragweed [5, 15] | Plant response rating, Ragweed [5, 16] | Plant response rating, Ragweed [5, 17] | Plant response rating, Ragweed [5, 18] | Ragweed plant response rating ([5]; Preemergence, scale 0 to 100) | Plant response rating, Bromegrass, Downy [6, 16] | Bromegrass, Downy plant response rating ([6]; Preemergence, scale 0 to 100) | Plant response rating, Nightshade, E. B. [7, 19] | Plant response rating, Nightshade, E. B. [7, 20] | Plant response rating, Nightshade, E. B. ([7]; 62 g ai/ha, scale 0 to 100) | Nightshade, E. B. plant response rating ([7]; 8 g ai/ha, scale 0 to 100) | Morningglory plant response rating ([10]; postemergence, 0-100 scale) | Plant response rating, Morningglory [10, 13] | Plant response rating, Morningglory [10, 14] | Plant response rating, Morningglory [10, 15] | Plant response rating, Morningglory [10, 16] | Plant response rating, Morningglory [10, 17] | Plant response rating, Morningglory [10, 18] | Morningglory plant response rating ([10]; Preemergence, scale 0 to 100) | Pigweed plant response rating ([11]; postemergence, 0-100 scale) | Plant response rating, Pigweed [11, 13] | Plant response rating, Pigweed [11, 14] | Plant response rating, Pigweed [11, 15] | Plant response rating, Pigweed [11, 16] | Plant response rating, Pigweed [11, 17] | Plant response rating, Pigweed [11, 18] | Pigweed plant response rating ([11]; Preemergence, scale 0 to 100)
90: Plant response rating, Johnsongrass [8, 15] | Plant response rating, Crabgrass, Large [9, 13] | Plant response rating, Crabgrass, Large [9, 14] | Oat, Wild plant response rating (wild oat (Avena fatua); postemergence, 0-100 scale) | Plant response rating, Oat, Wild (wild oat (Avena fatua); [18])
5: Bromegrass, Downy plant response rating ([6]; postemergence, 0-100 scale)
80: Plant response rating, Ryegrass, Italian [1, 13] | Plant response rating, Blackgrass [2, 14] | Plant response rating, Bromegrass, Downy [6, 15] | Plant response rating, Bromegrass, Downy [6, 17] | Plant response rating, Oat, Wild (wild oat (Avena fatua); [16]) | Plant response rating, Oat, Wild (wild oat (Avena fatua); [17]) | Plant response rating, Rice (rice (Oryza sativa); [23])
65: Plant response rating, Rice (rice (Oryza sativa); [21])
95: Plant response rating, Ryegrass, Italian [1, 16] | Plant response rating, Ryegrass, Italian [1, 17] | Plant response rating, Blackgrass [2, 15] | Plant response rating, Johnsongrass [8, 16] | Plant response rating, Crabgrass, Large [9, 16] | Plant response rating, Crabgrass, Large [9, 17] | Plant response rating, Oat, Wild (wild oat (Avena fatua); [13]) | Plant response rating, Oat, Wild (wild oat (Avena fatua); [14])
98: Plant response rating, Ryegrass, Italian [1, 18] | Plant response rating, Johnsongrass [8, 17] | Plant response rating, Crabgrass, Large [9, 18] | Plant response rating, Oat, Wild (wild oat (Avena fatua); [15])
30: Plant response rating, Barnyardgrass [12, 24] | Plant response rating, Rice (rice (Oryza sativa); [24])
100: Plant response rating, Ryegrass, Italian [1, 14] | Plant response rating, Ryegrass, Italian [1, 15] | Plant response rating, Blackgrass [2, 16] | Plant response rating, Blackgrass [2, 17] | Plant response rating, Blackgrass [2, 18] | Plant response rating, Bromegrass, Downy [6, 18] | Plant response rating, Johnsongrass [8, 18] | Plant response rating, Crabgrass, Large [9, 15] | Plant response rating, Barnyardgrass [12, 23]
75: Ryegrass, Italian plant response rating ([1]; postemergence, 0-100 scale) | Plant response rating, Rice (rice (Oryza sativa); [22])
70: Blackgrass plant response rating ([2]; postemergence, 0-100 scale) | Plant response rating, Blackgrass [2, 13] | Plant response rating, Bromegrass, Downy [6, 14] | Johnsongrass plant response rating ([8]; postemergence, 0-100 scale) | Plant response rating, Johnsongrass [8, 13] | Crabgrass, Large plant response rating ([9]; postemergence, 0-100 scale) | Crabgrass, Large plant response rating ([9]; Preemergence, scale 0 to 100) | Oat, Wild plant response rating (wild oat (Avena fatua); Preemergence, scale 0 to 100)
60: Blackgrass plant response rating ([2]; Preemergence, scale 0 to 100) | Johnsongrass plant response rating ([8]; Preemergence, scale 0 to 100) | Plant response rating, Barnyardgrass [12, 21]
50: Plant response rating, Bromegrass, Downy [6, 13]
